System: HT-29 human carcinoma cells
Assay: cells
Settings: for Cloning Efficiency (% of control): 72 hours
Description: HT-29 human carcinoma cells (ATCC No. HTB-38) were maintained in RPMI 1640 with 10%v/v fetal bovine serum (GIBCO) in a humidified, 5% CO2 atmosphere at 37° C. Cells were plated in 24 well plates (150 cells per well) in RPMI 1640 medium with 10% v/v dialyzed fetal bovine serum. […] The various agents were diluted in phosphate-buffered saline (PBS), and control wells received vehicle alone. After 72 hours, drug containing medium was removed and replaced with RPMI 1640 with 10%v/v fetal bovine serum. Cell colonies were allowed to grow for an additional 7-10 days, at which point they were stained and counted. […] Data are means of at least 3 determinations.

[1] = 5-FU 0, IFN 500 u/ml, 5-ETH or 5-PRO 150 μM
[2] = 5-FU 0.05 μM, IFN 500 u/ml, 5-ETH or 5-PRO 150 μM
[3] = 5-FU 0.10 μM, IFN 500 u/ml, 5-ETH or 5-PRO 150 μM
[4] = 5-FU 0.25 μM, alone (CONT) or with IFN 500 u/ml, 5-ETH or 5-PRO 150 μM
[5] = 5-FU 0.50 μM, alone (CONT) or with IFN 500 u/ml, 5-ETH or 5-PRO 150 μM
[6] = 5-FU 1.0 μM, alone (CONT) or with IFN 500 u/ml, 5-ETH or 5-PRO 150 μM
[7] = 5-FU 1.5 μM, alone (CONT) or with IFN 500 u/ml, 5-ETH or 5-PRO 150 μM

Row | SMILES | IC50 (Homo sapiens, HT-29, 72 h, read-out: 5-FU IC50, with 5-propynyloxy-2'-deoxyuridine (150 μM), 3 days of drug treatment) | inhibition at 2 µM (Homo sapiens, HT-29, 72 h, read-out: reduction in colonies) | increased the cytotoxicity of 5-fluorouracil | Cloning Efficiency (% of control) [1] | Cloning Efficiency (% of control) [2] | Cloning Efficiency (% of control) [3] | Cloning Efficiency (% of control) [4] | Cloning Efficiency (% of control) [5] | Cloning Efficiency (% of control) [6] | Cloning Efficiency (% of control) [7] | Cloning Efficiency (% of control) (5-FU 2.0 μM, alone (CONT) or with IFN 500 u/ml, 5-PRO 150 μM) | Cloning Efficiency (% of control) (5-FU 3.0 μM, alone (CONT) or with IFN 500 u/ml, 5-PRO 150 μM)
1 | O=c1[nH]cc(F)c(=O)[nH]1 [5-FU, 5-fluorouracil] | 260 nM | 50% | – | – | – | – | – | – | – | – | – | –
2 | C#CCOc1cn([C@H]2C[C@H](O)[C@@H](CO)O2)c(=O)[nH]c1=O [5-propynyloxy-2'-deoxyuridine, 5-(2-propynyloxy)-2'-deoxyuridine] | – | – | 7.7 times | 105% | 100% | 81% | 51% | 26% | 9% | 4% | 2% | 0%
3 | CCOc1cn([C@H]2C[C@H](O)[C@@H](CO)O2)c(=O)[nH]c1=O [5-ethoxy-2'-deoxyuridine] | – | – | 5.7 times | 89% | 81% | 80% | 60% | 38% | 13% | 4% | – | –

From patent US5496810A, “Pyrimidine deoxyribonucleoside potentiation of combination therapy based on 5-fluorouracil and interferon” (Montefiore Medical Center, priority 1994, dated 1996)
